Experimental findings from ChEMBL document CHEMBL4346657, “Anticancer activity, dual prooxidant/antioxidant effect and apoptosis induction profile of new bichalcophene-5-carboxamidines” (Eur J Med Chem, 2019) are described below.

A short description of data set [1]: Antioxidant activity assessed as DPPH radical scavenging activity incubated in dark for 30 mins by spectrophotometric method relative to ascorbic acid. The data set is classed as functional.
The subject of data set [2] is Erythrocyte. Kind of data set: (§1) Haemolytic activity in human erythrocytes assessed as induction of hemolysis at 0.625 mM after 30 mins relative to H202. The data set is classed as cell-based. Particulars: erythrocyte, 0.5 h, 625 µM.
A short description of data set [3]: Haemolytic activity in human erythrocytes assessed as induction of hemolysis at 2.5 mM after 30 mins relative to H202. To be noted: erythrocytes, read-out: Activity. The data set is classed as cell-based, Erythrocyte.
A short description of data set [4]: Haemolytic activity in human erythrocytes assessed as induction of hemolysis at 5 mM after 30 mins relative to H202. It is filed as cell-based, Erythrocyte. Particulars: read-out: Activity.
Data set [5] in a line: Antioxidant activity assessed as ABTS radical scavenging activity by spectrophotometric method relative to ascorbic acid. The data set is classed as functional.
Data set [6] concerns Erythrocyte. The experiment in a line: (§2) Haemolytic activity in human erythrocytes assessed as induction of hemolysis at 1.25 mM after 30 mins relative to H202. The data set is classed as cell-based. Particulars: erythrocyte, 0.5 h, 1250 µM.
Data set [7] in a line: Haemolytic activity in human erythrocytes assessed as induction of hemolysis at 10 mM after 30 mins relative to H202. The data set is classed as cell-based, Erythrocyte. Particulars: read-out: Activity.
Data set [8] is described as follows: Antioxidant activity assessed as ABTS radical scavenging activity by spectrophotometric analysis relative to control. It is filed as functional. Further details: concentration or dose not given beside the values. To be noted: dose or concentration not given here.
Another data set has as its system K562. Kind of data set: Antiproliferative activity against human K562 cells assessed as growth inhibition after 48 hrs by sulforhodamine B assay. It is filed as functional, cell-based. Particulars: K562, 48 h. Background: Sulforhodamine B stains cellular protein and so reports cell mass.
Data set [9] can be described thus: Pro-oxidant activity assessed as increase in bleomycin-Fe2+ induced calf thymus DNA damage at 2 mM after 1 hr by thiobarbituric acid based absorbance analysis.
In the next data set the test system is WI-38. Kind of data set: Cytotoxicity activity against human WI38 cells assessed as reduction in cell viability measured after 48 hrs by MTT assay. It is filed as cell-based. Particulars: WI-38, 48 h. Background: Tetrazolium assays rely on reduction of a dye to a coloured formazan, in cell work by metabolically active cells.
Data set [10] deals with HCT-116. Kind of data set: Induction of apoptosis in human HCT116 cells assessed as increase in caspase 9 mRNA expression at 100 nM after 6 hrs hrs by SYBR green dye-based qRT-PCR analysis relative to control. It is filed as functional.
Data set [11] relates to HCT-116. The experiment in a line: Induction of apoptosis in human HCT116 cells assessed as increase in p53 mRNA expression at 100 nM after 6 hrs hrs by SYBR green dye-based qRT-PCR analysis relative to control. The data set is classed as functional. (In general: Real-time PCR tracks product formation cycle by cycle.)
For data set [12], the system named is HCT-116. The experiment in a line: […] in CDK1 mRNA expression in human HCT116 cells at 100 nM after 6 hrs hrs by SYBR green dye-based qRT-PCR analysis relative to control. The data set is classed as functional.
In data set [13] the test system is HCT-116. Kind of data set: Induction of apoptosis in human HCT116 cells assessed as increase in caspase 3 mRNA expression at 100 nM after 6 hrs hrs by SYBR green dye-based qRT-PCR analysis relative to control. The data set is classed as functional.
The nature of data set [14]: Antioxidant activity assessed as DPPH radical scavenging activity incubated in dark for 30 mins by spectrophotometric method relative to control. It is filed as functional. Also on record: concentration or dose not given beside the values.
A short description of data set [15]: Antioxidant activity assessed as hydroxyl radical scavenging activity after 1 hr by salicylic acid-based Fenton reaction assay. The data set is classed as functional.
A short description of data set [16]: (§3) Selectivity index, ratio of IC50 for human WI38 cells to GI50 for human NCI60 cells.
Data set [17] is described as follows: as §2. The data set is classed as cell-based, Erythrocyte. Particulars: erythrocytes, read-out: Activity.
In data set [18] the test system is HCT-116. The experiment in a line: Reduction in CDK1 mRNA expression in human HCT116 cells at 100 nM after 6 hrs hrs by SYBR green dye-based qRT-PCR analysis relative to control. Particulars: HCT-116, 6 h. The data set is classed as functional.
The species entered for the next data set is Homo sapiens. Described as §3.
Data set [19] can be described thus: as §1. It is filed as cell-based, Erythrocyte. Particulars: erythrocytes, read-out: Activity.

The source made the active and inactive calls. No cut-off for these calls is given here.

Turning to `O=C1O[C@H]([C@@H](O)CO)C(O)=C1O` [ASCORBIC ACID], the fold change (FC) in data set [1] and in data set [5] was 1 in each case. The Activity entry in the data set with Erythrocyte [2] and with Erythrocyte [6] was “Non-Toxic” throughout. The hemolysis at 0.5 h, 2500 µM in [3] worked out at 4%. Besides, the hemolysis at 0.5 h, 5000 µM in data set [4] worked out at 8%. For the same compound, in data set [7], the hemolysis at 0.5 h, 10000 µM amounted to 16.3%.
The term inhibition denotes how much of the control response was suppressed. For the compound `N=C(N)c1ccc(-c2ccc(-c3ccccc3)s2)s1`, the inhibition is 61.7% in data set [8] and 53% in data set [14]. For the same compound, the IC50 in the data set on K562 (read-out: IC50) was 0.24 µM; with K562 (read-out: pIC50 (converted)), 38000 µM; in the data set on WI-38, 49.1 µM. Besides, the result in data set [9] and in [15] was Active. Besides, the fold change (FC) in data set [1] was found to be 0.6; in the data set on HCT-116 [10] it was 2.47; in the data set on HCT-116 [11] it was 1.1; in the data set with HCT-116 [12], 0.88; in the data set with HCT-116 [13], 2.39; in data set [5], 0.7. In addition, the Activity result with Erythrocyte [2] and in the data set with Erythrocyte [6] was “Non-Toxic” in each case. The hemolysis at 0.5 h, 2500 µM in data set [3] was determined as 15.3%. Also, in data set [4], the hemolysis at 0.5 h, 5000 µM stood at 56.7%. In data set [7], the hemolysis at 0.5 h, 10000 µM is 85.1%. Moreover, the “Selectivity Index” value in data set [16] is reported as 38.3.
Take `COc1cccc(-c2ccc(-c3ccc(C(=N)N)s3)s2)c1`: the inhibition came to 58.2% in data set [8] and 47.5% in data set [14]. Moreover, the values for the IC50 in the data set with K562 (read-out: IC50), in the data set on K562 (read-out: pIC50 (converted)) and in the data set with WI-38 were 0.18 µM, 19500 µM and 77.2 µM, respectively. For the same compound, the result in [9] and in data set [15] was Active. Further, the fold change (FC) in [1] was determined as 0.5; in the data set on HCT-116 [10], 1.01; in the data set with HCT-116 [11], 0.89; in the data set with HCT-116 [12], 0.93; in the data set on HCT-116 [13], 3.71; in data set [5], 0.6. Further, the Activity result in the data set on Erythrocyte [2] is “Non-Toxic”. Also, the hemolysis at 0.5 h, 2500 µM in data set [3] was found to be 16.1%. Also, the hemolysis at 0.5 h, 5000 µM in data set [4] amounted to 39%. Also, the hemolysis at 0.5 h, 1250 µM in data set [17] turned out to be 3.1%. Besides, the hemolysis at 0.5 h, 10000 µM in data set [7] came out at 79%. Besides, the “Selectivity Index” value in data set [16] worked out at 148.4.
Turning to `O=c1[nH]cc(F)c(=O)[nH]1` [FLUOROURACIL], the IC50 in the data set with WI-38 amounted to 8.4 µM. In addition, the “fold change (FC)” value in the data set on HCT-116 [10] came out at 4.53; in the data set on HCT-116 [11] it was 1.48; in the data set on HCT-116 [12], 0.48; in the data set on HCT-116 [13] it was 3.92. In addition, the inhibition at 0.1 µM in the data set on HCT-116 [18] was in the range of 50 to 52%. The “Selectivity Index” value in the data set filed under Homo sapiens was “inactive”.
Regarding `COc1ccc(-c2ccc(-c3ccc(C(=N)N)s3)s2)cc1`, the inhibition turned out to be 59.2% in [8] and 51.9% in data set [14]. The IC50 is 0.18 µM with K562 (read-out: IC50), 19500 µM with K562 (read-out: pIC50 (converted)) and 12.9 µM in the data set on WI-38. The outcome in data set [9] and in [15] was Active. Further, the fold change (FC) in data set [1] came out at 0.6; with HCT-116 [10] it was 2.38; in the data set with HCT-116 [11], 1.06; with HCT-116 [12] it was 0.91; in the data set with HCT-116 [13] it was 2.51; in data set [5], 0.6. Besides, the hemolysis at 0.5 h, 625 µM in data set [19] stood at 4%. Further, in data set [3], the hemolysis at 0.5 h, 2500 µM amounted to 41%. In addition, the hemolysis at 0.5 h, 5000 µM in data set [4] came to 63.7%. The hemolysis at 0.5 h, 1250 µM in data set [17] was 17.3%. For the same compound, the hemolysis at 0.5 h, 10000 µM in data set [7] was found to be 92.7%. For the same compound, in data set [16], the “Selectivity Index” value is listed as 43.
